In patent US8624053B2, “Method to produce a stable dry ionic-bonded creatine α ketoglutarate of high oral absorbability” (priority 2012, dated 2014):

System: athletes
Conditions: about half the dose provided from other preparations
From the text: (The actual dose depended on the athlete.)
The performance evaluations were made by experienced coaches, overlooking standard athletic tasks.

creatine α-ketoglutarate [product of the invention]
time after delivery to peak performance: ten
